Reference: article PMC2009384, “The carcinogenicity of polycyclic hydrocarbon epoxides in newborn mice” (British Journal of Cancer, 1975)

Tested on: newborn Swiss mice
Test: Experiment II: carcinogenicity in newborn mice, chrysene, 7-methylbenz(a)anthracene and K region epoxides (s.c. injection, tumour incidence to 70-75 weeks)
Settings: for incidence of lung tumours / liver tumour incidence: 3 x 100 µg s.c., newborn; for incidence of lung tumours: 7-methylbenz(a)anthracene pair
From the text: Br. J. Cancer (1975) 31, 182 THE CARCINOGENICITY OF POLYCYCLIC HYDROCARBON EPOXIDES IN NEWBORN MICE P. L. GROVER, P. SIMS, B. C. V. MITCHLEY AND F. J. C. ROE From the Chester Beatty Research Institute, Institute of Cancer Research, Royal Cancer Hospital, Fulham Road, London, SW3 6JB Received 9 August 1974. […] THE HYPOTHESIS that the carcino- genicity of polycyclic hydrocarbons is associated with the formation of epoxide metabolites (Grover, Hewer and Sims, 1971, 1972; Keysell et al., 1973) is sup- ported by some experimental evidence but remains unproven. […] The epoxides can also act as alkylating agents (Grover and Sims, 1970) and as mutagens (Ames, Sims and Grover, 1972; Huberman et al., 1971; Cookson, Sims and Grover, 1971; Fahmy and Fahmy, 1973). […] The newborn mouse, which is susceptible to carcinogenic polycyclic hydrocarbons (Roe, Rowson and Salaman, 1961; Roe, Mitchley and Walters, 1963; Walters and Roe, 1964, 1966) can be considered as a convenient source of several types of rapidly dividing cells. Consequently we have tested the K region epoxides derived from phenanthrene, benz(a)anthracene, 7-methylbenz(a)anthracene, dibenz(a,h)- anthracene, chrysene and 3-methylchol- anthrene, together with some of the CARCINOGENICITY OF POLYCYCLIC HYDROCARBON EPOXIDES IN MICE 183 parent hydrocarbons, for carcinogenicity using newborn mice. This paper presents the results that were obtained in these experiments. MATERIALS AND METHODS The polycyclic hydrocarbon epoxides, phenanthrene 9,10-oxide, benz(a)anthracene 5,6-oxide, 7-methylbenz(a)anthracene 5,6- oxide, dibenz(a,h)anthracene 5,6-oxide, chry- sene 5,6-oxide and 3-methylcholanthrene 11,12-oxide were prepared from the parent hydrocarbons (Newman and Blum, 1964; Boyland and Sims, 1965; Sims 1966). Two experiments were undertaken fol- lowing similar protocols. For each experi- ment Swiss mice from a specific pathogen- free colony were time mated so as to produce a large number of litters over the course of 2 or 3 days. […] Test compounds were suspended in poly- ethylene glycol (PEG) 400 and injections of 0-02 ml of the suspension were given by introducing a 25 gauge hypodermic needle through the skin near the root of the tail and threading it subcutaneously to deliver the injected material in the interscapular region. Injections were given to every mouse on the first day or first 3 days of life. The details of treatments and numbers of mice of each sex in each group are shown in Table I (Experiment I) and Table II (Ex- periment II). Surviving mice were weaned when they w ere 21 days old. Thereafter, males and females w ere separated and housed 6 per cage in metal boxes. A mixture of sawdust and wood shavings was used as bedding. The mice were fed on a standard cubed diet (Formulation 86 from C. Holdman and Sons (Plow co Feeds), Byers Lane, South Godstone, Surrey) and water was given ad libitum. Mice were inspected daily, and at weekly intervals they were weighed and palpated for tumours and other lesions. […] The experiment was terminated when surviving mice were between 70 and 75 weeks old. A full routine post- mortem examination, which included disten- sion of the urinary bladder with fixative, was carried out. The number of lesions thought to be neoplasms and the size of the largest such lesion in each organ affected were recorded. All tissues with suspected neoplasms were fixed in Bouin's solution. Haematoxylin and eosin stained 5 µm paraffin wax sections were prepared and examined microscopically. RESULTS The results of the two experiments in terms of tumour incidence are sum- marized in […].

[1] = females, 60 µg, 1 treatment (Day 0 only) s.c. in PEG 400
[2] = males, 60 µg, 1 treatment (Day 0 only) s.c. in PEG 400
[3] = females, 100 µg per treatment, 3 treatments
[4] = females, 100 µg per treatment, 3 treatments (Days 0, 1 and 2) s.c. in PEG 400
[5] = males, 100 µg per treatment, 3 treatments
[6] = males, 100 µg per treatment, 3 treatments (Days 0, 1 and 2) s.c. in PEG 400

SMILES: Cc1ccc2cc3c(c4c2c1CC4)C1OC1c1ccccc1-3 (stereo not drawn) [3-Methylcholanthrene 11,12-oxide]
- No. of mice examined at p.m. at termination of experiment (70-75th week) with liver tumours (females, 60 µg, 1 treatment): 0
- No. of mice examined at p.m. at termination of experiment (70-75th week) with lung tumours (females, 60 µg, 1 treatment): 3
- No. of mice examined at p.m. at termination of experiment (70-75th week) with multiple liver tumours (females, 60 µg, 1 treatment): 0
- No. of mice examined at p.m. at termination of experiment (70-75th week) with multiple lung tumours (females, 60 µg, 1 treatment): 1
- No. of mice examined at p.m. at termination of experiment (70-75th week) with other tumours (females, 60 µg, 1 treatment): 0
- No. of mice examined at p.m. from 50-70th week with liver tumours (females, 60 µg, 1 treatment): 0
- No. of mice examined at p.m. from 50-70th week with lung tumours (females, 60 µg, 1 treatment): 0
- No. of mice examined at p.m. from 50-70th week with other tumours (females, 60 µg, 1 treatment): 0
- No. of survivors at 50 weeks [1]: 27
- No. of survivors at 70 weeks [1]: 25
- effect on the incidence of liver, lung or other tumours (in the doses tested (3 x 100 µg or 1 x 60 µg)): without apparent effect
- No. of mice examined at p.m. at termination of experiment (70-75th week) with liver tumours (males, 60 µg, 1 treatment): 6
- No. of mice examined at p.m. at termination of experiment (70-75th week) with lung tumours (males, 60 µg, 1 treatment): 5
- No. of mice examined at p.m. at termination of experiment (70-75th week) with multiple liver tumours (males, 60 µg, 1 treatment): 1
- No. of mice examined at p.m. at termination of experiment (70-75th week) with multiple lung tumours (males, 60 µg, 1 treatment): 0
- No. of mice examined at p.m. at termination of experiment (70-75th week) with other tumours (males, 60 µg, 1 treatment): 0
- No. of mice examined at p.m. from 50-70th week with liver tumours (males, 60 µg, 1 treatment): 0
- No. of mice examined at p.m. from 50-70th week with lung tumours (males, 60 µg, 1 treatment): 0
- No. of mice examined at p.m. from 50-70th week with other tumours (males, 60 µg, 1 treatment): 0
- No. of survivors at 50 weeks [2]: 28
- No. of survivors at 70 weeks [2]: 26

SMILES: Cc1c2c(cc3ccccc13)-c1ccccc1C1OC21 (stereo not drawn) [7-Methylbenz(a)anthracene 5,6-oxide]
- incidence of lung tumours: slightly raised
- No. of mice examined at p.m. at termination of experiment (70-75th week) with liver tumours [3]: 0
- No. of mice examined at p.m. at termination of experiment (70-75th week) with lung tumours [3]: 6
- No. of mice examined at p.m. at termination of experiment (70-75th week) with multiple liver tumours [3]: 0
- No. of mice examined at p.m. at termination of experiment (70-75th week) with multiple lung tumours [3]: 3
- No. of mice examined at p.m. at termination of experiment (70-75th week) with other tumours [3]: 0
- No. of mice examined at p.m. from 50-70th week with liver tumours [3]: 0
- No. of mice examined at p.m. from 50-70th week with lung tumours [3]: 1
- No. of mice examined at p.m. from 50-70th week with other tumours [3]: 0
- No. of survivors at 50 weeks [4]: 25
- No. of survivors at 70 weeks [4]: 22
- No. of mice examined at p.m. at termination of experiment (70-75th week) with liver tumours [5]: 4
- No. of mice examined at p.m. at termination of experiment (70-75th week) with lung tumours [5]: 2
- No. of mice examined at p.m. at termination of experiment (70-75th week) with multiple liver tumours [5]: 2
- No. of mice examined at p.m. at termination of experiment (70-75th week) with multiple lung tumours [5]: 2
- No. of mice examined at p.m. at termination of experiment (70-75th week) with other tumours [5]: 0
- No. of mice examined at p.m. from 50-70th week with liver tumours [5]: 0
- No. of mice examined at p.m. from 50-70th week with lung tumours [5]: 0
- No. of mice examined at p.m. from 50-70th week with other tumours [5]: 0
- No. of survivors at 50 weeks [6]: 20
- No. of survivors at 70 weeks [6]: 20

SMILES: Cc1c2ccccc2cc2c1ccc1ccccc12 [7-Methylbenz(a)anthracene, reference compound]
- incidence of lung tumours: slightly raised
- No. of mice examined at p.m. at termination of experiment (70-75th week) with liver tumours [3]: 0
- No. of mice examined at p.m. at termination of experiment (70-75th week) with lung tumours [3]: 1
- No. of mice examined at p.m. at termination of experiment (70-75th week) with multiple liver tumours [3]: 0
- No. of mice examined at p.m. at termination of experiment (70-75th week) with multiple lung tumours [3]: 1
- No. of mice examined at p.m. at termination of experiment (70-75th week) with other tumours [3]: 1
- No. of mice examined at p.m. from 50-70th week with liver tumours [3]: 0
- No. of mice examined at p.m. from 50-70th week with lung tumours [3]: 7
- No. of mice examined at p.m. from 50-70th week with other tumours [3]: 1
- No. of survivors at 50 weeks [4]: 21
- No. of survivors at 70 weeks [4]: 10
- No. of mice examined at p.m. at termination of experiment (70-75th week) with liver tumours [5]: 1
- No. of mice examined at p.m. at termination of experiment (70-75th week) with lung tumours [5]: 3
- No. of mice examined at p.m. at termination of experiment (70-75th week) with multiple liver tumours [5]: 1
- No. of mice examined at p.m. at termination of experiment (70-75th week) with multiple lung tumours [5]: 3
- No. of mice examined at p.m. at termination of experiment (70-75th week) with other tumours [5]: 1
- No. of mice examined at p.m. from 50-70th week with liver tumours [5]: 11
- No. of mice examined at p.m. from 50-70th week with lung tumours [5]: 10
- No. of mice examined at p.m. from 50-70th week with other tumours [5]: 0
- No. of survivors at 50 weeks [6]: 23
- No. of survivors at 70 weeks [6]: 4
- activity in increasing the incidence of liver tumours in males compared with K region epoxide (neonatally injected, 3 x 100 µg): more active than its K region epoxide

SMILES: c1ccc2c(c1)-c1ccc3ccccc3c1C1OC21 (stereo not drawn) [Chrysene 5,6-oxide]
- liver tumour incidence: increased
- No. of mice examined at p.m. at termination of experiment (70-75th week) with liver tumours [3]: 1
- No. of mice examined at p.m. at termination of experiment (70-75th week) with multiple liver tumours [3]: 0
- No. of mice examined at p.m. at termination of experiment (70-75th week) with multiple lung tumours [3]: 0
- No. of mice examined at p.m. at termination of experiment (70-75th week) with other tumours [3]: 0
- No. of mice examined at p.m. from 50-70th week with liver tumours [3]: 0
- No. of mice examined at p.m. from 50-70th week with lung tumours [3]: 0
- No. of mice examined at p.m. from 50-70th week with other tumours [3]: 0
- No. of survivors at 50 weeks [4]: 22
- No. of survivors at 70 weeks [4]: 20
- No. of mice examined at p.m. at termination of experiment (70-75th week) with liver tumours [5]: 8
- No. of mice examined at p.m. at termination of experiment (70-75th week) with lung tumours [5]: 0
- No. of mice examined at p.m. at termination of experiment (70-75th week) with multiple liver tumours [5]: 3
- No. of mice examined at p.m. at termination of experiment (70-75th week) with multiple lung tumours [5]: 0
- No. of mice examined at p.m. at termination of experiment (70-75th week) with other tumours [5]: 0
- No. of mice examined at p.m. from 50-70th week with liver tumours [5]: 0
- No. of mice examined at p.m. from 50-70th week with lung tumours [5]: 0
- No. of mice examined at p.m. from 50-70th week with other tumours [5]: 0
- No. of survivors at 50 weeks [6]: 23
- No. of survivors at 70 weeks [6]: 21

SMILES: c1ccc2c(c1)ccc1c3ccccc3ccc21 [Chrysene, reference compound]
- liver tumour incidence: increased
- No. of mice examined at p.m. at termination of experiment (70-75th week) with liver tumours [3]: 0
- No. of mice examined at p.m. at termination of experiment (70-75th week) with lung tumours [3]: 0
- No. of mice examined at p.m. at termination of experiment (70-75th week) with multiple liver tumours [3]: 0
- No. of mice examined at p.m. at termination of experiment (70-75th week) with multiple lung tumours [3]: 0
- No. of mice examined at p.m. at termination of experiment (70-75th week) with other tumours [3]: 0
- No. of mice examined at p.m. from 50-70th week with liver tumours [3]: 0
- No. of mice examined at p.m. from 50-70th week with lung tumours [3]: 0
- No. of mice examined at p.m. from 50-70th week with other tumours [3]: 0
- No. of survivors at 50 weeks [4]: 22
- No. of survivors at 70 weeks [4]: 21
- No. of mice examined at p.m. at termination of experiment (70-75th week) with liver tumours [5]: 13
- No. of mice examined at p.m. at termination of experiment (70-75th week) with lung tumours [5]: 1
- No. of mice examined at p.m. at termination of experiment (70-75th week) with multiple liver tumours [5]: 6
- No. of mice examined at p.m. at termination of experiment (70-75th week) with multiple lung tumours [5]: 1
- No. of mice examined at p.m. at termination of experiment (70-75th week) with other tumours [5]: 0
- No. of mice examined at p.m. from 50-70th week with liver tumours [5]: 0
- No. of mice examined at p.m. from 50-70th week with lung tumours [5]: 0
- No. of mice examined at p.m. from 50-70th week with other tumours [5]: 0
- No. of survivors at 50 weeks [6]: 28
- No. of survivors at 70 weeks [6]: 27
